Entries after “also recorded” stand apart in the source; their conditions may differ. Read-outs that look alike come from different tables or passages of the source.
Assays:
[1] = system: subcutaneous G401 xenografts
Protocol: ELISA: Histones were isolated from tumors as previously described (Daigle et al) and were prepared in equivalent concentrations (0.5 ng/ul for H3 and 4 ng/ul for H3K27Me3) in coating buffer (PBS with 0.05% BSA). […] The plates were sealed and incubated overnight at 4° C. The following day, plates were washed 3 times with 300 μL/well PBST (PBS with 0.05% Tween 20; 10×PBST, KPL #51-14-02) on a Bio Tek plate washer. Plates were blocked with 300 μL/well of diluent (PBS+2% BSA+0.05% Tween 20), incubated at room temperature for 2 hours, and washed 3 times with PBST. All antibodies were diluted in diluent. […] Plates were incubated for 90 minutes at room temperature and washed 3 times with PBST. […] Plates were washed 4 times with PBST. For detection, 100 μL/well of TMB substrate (BioFx Laboratories, #TMBS) was added and plates incubated in the dark at room temperature for 5 minutes. Reaction was stopped with 100 μL/well 1N H2SO4. Absorbance at 450 nm was read on SpectraMax M5 Microplate reader.
Xenograft study: All the procedures related to animal handling, care and the treatment in this study were performed according to the guidelines approved by the Institutional Animal Care and Use Committee (IACUC) of Shanghai Chemparner following the guidance of the Association for Assessment and Accreditation of Laboratory Animal Care (AAALAC). […] Animal body weights were measured every day during the first week, then twice weekly for the remainder of the study. Tumor size was measured twice weekly in two dimensions using a caliper, and the volume was expressed in mm^3. […] The remaining mice continued dosing for one more week, and from day 29, treatment was stopped and the mice were enrolled in a tumor growth delay study. Mice were observed as individuals until they reached the tumor weight endpoint (2000 mm^3) or until day 60 (whichever came first).

[2] = system: RD SMARCB1 wild-type cells; experiment: Cell cycle analysis (flow cytometry) and TUNEL assay, RD; type: cell-based; conditions: 1 μM, up to 14 days
Protocol: (§1) Cell cycle analysis and TUNEL assay were performed using a Guava® flow cytometer, following the manufacturer's protocol.

PRMT5/MEP50 = PRMT5/MEP50 (Homo sapiens, UniProt O14744); experiment: Histone methyltransferase inhibition, PRMT5/MEP50; type: biochemical
Sequence of PRMT5/MEP50 (O14744 whole entry, species assumed): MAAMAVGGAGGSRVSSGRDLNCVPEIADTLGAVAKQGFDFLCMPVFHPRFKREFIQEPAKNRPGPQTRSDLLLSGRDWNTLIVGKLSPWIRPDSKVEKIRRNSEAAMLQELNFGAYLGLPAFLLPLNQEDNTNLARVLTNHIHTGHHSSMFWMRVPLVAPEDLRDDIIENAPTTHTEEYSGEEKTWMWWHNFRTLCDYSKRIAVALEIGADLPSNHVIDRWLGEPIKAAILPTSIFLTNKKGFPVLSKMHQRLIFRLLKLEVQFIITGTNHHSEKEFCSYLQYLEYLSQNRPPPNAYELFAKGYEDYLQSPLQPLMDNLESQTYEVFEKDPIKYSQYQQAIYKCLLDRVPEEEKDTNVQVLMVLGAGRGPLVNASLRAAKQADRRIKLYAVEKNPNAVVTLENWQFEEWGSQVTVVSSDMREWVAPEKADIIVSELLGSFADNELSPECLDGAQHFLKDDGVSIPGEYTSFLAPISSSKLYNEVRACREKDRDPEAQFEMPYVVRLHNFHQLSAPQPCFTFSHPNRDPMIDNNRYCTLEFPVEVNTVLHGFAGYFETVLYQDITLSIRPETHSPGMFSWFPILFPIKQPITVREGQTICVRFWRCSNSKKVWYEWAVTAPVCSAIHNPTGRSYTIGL
Sequence of PRMT5/MEP50 (Q9BQA1 whole entry partner, species assumed): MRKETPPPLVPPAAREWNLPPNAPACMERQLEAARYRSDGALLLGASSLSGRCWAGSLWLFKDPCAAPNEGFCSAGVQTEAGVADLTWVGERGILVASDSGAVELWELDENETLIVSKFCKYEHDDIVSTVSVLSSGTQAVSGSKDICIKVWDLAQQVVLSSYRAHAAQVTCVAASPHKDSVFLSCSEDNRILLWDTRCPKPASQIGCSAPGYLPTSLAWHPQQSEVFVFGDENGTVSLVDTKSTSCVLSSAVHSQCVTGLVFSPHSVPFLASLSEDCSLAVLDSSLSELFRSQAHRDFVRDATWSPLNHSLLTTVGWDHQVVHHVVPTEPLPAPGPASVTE

DOT1L = DOT1L (Homo sapiens, UniProt Q8TEK3); experiment: Histone methyltransferase inhibition, DOT1L; type: biochemical
Sequence of DOT1L (Q8TEK3 whole entry, species assumed): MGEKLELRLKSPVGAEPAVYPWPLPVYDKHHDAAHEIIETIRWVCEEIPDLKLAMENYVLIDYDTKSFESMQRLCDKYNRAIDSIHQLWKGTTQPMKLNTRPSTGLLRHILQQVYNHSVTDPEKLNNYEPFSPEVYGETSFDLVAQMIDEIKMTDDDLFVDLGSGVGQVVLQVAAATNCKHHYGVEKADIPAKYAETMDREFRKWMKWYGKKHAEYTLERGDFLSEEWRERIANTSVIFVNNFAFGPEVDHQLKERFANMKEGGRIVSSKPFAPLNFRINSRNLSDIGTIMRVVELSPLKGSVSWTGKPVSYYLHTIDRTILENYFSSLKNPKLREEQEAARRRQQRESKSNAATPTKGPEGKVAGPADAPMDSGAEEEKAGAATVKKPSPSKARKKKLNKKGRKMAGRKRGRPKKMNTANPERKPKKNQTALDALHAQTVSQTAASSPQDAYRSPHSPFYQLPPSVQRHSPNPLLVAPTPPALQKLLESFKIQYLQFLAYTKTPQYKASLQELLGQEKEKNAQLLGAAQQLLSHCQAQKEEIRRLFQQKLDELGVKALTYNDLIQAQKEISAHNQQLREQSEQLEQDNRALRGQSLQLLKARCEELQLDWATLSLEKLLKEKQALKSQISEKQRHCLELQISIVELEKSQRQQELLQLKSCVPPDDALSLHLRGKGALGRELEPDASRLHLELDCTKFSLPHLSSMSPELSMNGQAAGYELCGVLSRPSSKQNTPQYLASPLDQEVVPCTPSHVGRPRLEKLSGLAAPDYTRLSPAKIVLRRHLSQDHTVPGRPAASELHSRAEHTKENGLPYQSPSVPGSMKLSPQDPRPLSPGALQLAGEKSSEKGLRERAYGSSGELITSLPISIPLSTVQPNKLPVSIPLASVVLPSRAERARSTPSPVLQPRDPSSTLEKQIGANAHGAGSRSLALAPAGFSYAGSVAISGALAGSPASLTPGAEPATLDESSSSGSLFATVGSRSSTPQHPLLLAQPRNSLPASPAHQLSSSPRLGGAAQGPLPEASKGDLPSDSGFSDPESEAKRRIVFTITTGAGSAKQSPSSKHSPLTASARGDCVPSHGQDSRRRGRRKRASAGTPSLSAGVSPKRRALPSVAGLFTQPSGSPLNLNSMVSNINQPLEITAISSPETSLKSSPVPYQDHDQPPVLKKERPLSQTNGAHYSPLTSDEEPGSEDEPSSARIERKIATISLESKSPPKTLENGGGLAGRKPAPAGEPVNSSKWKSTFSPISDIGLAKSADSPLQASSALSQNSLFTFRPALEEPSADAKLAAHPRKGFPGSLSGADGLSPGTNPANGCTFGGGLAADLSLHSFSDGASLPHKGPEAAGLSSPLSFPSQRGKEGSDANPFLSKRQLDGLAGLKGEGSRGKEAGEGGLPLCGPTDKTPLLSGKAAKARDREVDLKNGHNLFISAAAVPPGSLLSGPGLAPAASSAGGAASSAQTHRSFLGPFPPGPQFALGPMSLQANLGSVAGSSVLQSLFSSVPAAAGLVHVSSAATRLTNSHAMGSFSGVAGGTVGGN

EHMT1 = EHMT1 (Homo sapiens, UniProt Q9H9B1); experiment: Histone methyltransferase inhibition, EHMT1; type: biochemical
G401 cells = conditions: pretreated 7 days, replated on day 0
Protocol: SJCRH30 cells were cultured in RPMI+10% FBS. A204, G401, and G402 cells were cultured in McCoys 5a+10% FBS. KYM-1 cells were cultured in DMEM/Ham's F12+10% FBS.
Plates were read on Day 0, Day 4, and Day 7 using CellTiter-Glo® (Promega), with compound/media being replenished on Day 4. On Day 7, the 6-well plates were trypsinized, centrifuged, and resuspended in fresh media for counting by Vi-Cell. Cells from each treatment were replated at the original density in 96-well plates in triplicate. Cells were allowed to adhere to the plate overnight, and cells were treated as on Day 0. […] Averages of triplicates were used to plot proliferation over the timecourse, and calculate IC50 values.

[3] = Oral administration to rodents (bioavailability); type: in vivo; conditions: administered to rodents
PRMT3 = PRMT3 (Homo sapiens, UniProt O60678); experiment: Histone methyltransferase inhibition, PRMT3; type: biochemical; conditions: read-out: % Inhibition at 1 μM Compound A, mean and SD of duplicate experiments
EHMT2 = EHMT2 (Homo sapiens, UniProt Q96KQ7); experiment: Histone methyltransferase inhibition, EHMT2; type: biochemical
SMYD3 = SMYD3 (Homo sapiens, UniProt Q9H7B4); experiment: Histone methyltransferase inhibition, SMYD3; type: biochemical; conditions: read-out: % Inhibition at 1 μM Compound A, mean and SD of duplicate experiments
Sequence of SMYD3 (Q9H7B4 whole entry, species assumed): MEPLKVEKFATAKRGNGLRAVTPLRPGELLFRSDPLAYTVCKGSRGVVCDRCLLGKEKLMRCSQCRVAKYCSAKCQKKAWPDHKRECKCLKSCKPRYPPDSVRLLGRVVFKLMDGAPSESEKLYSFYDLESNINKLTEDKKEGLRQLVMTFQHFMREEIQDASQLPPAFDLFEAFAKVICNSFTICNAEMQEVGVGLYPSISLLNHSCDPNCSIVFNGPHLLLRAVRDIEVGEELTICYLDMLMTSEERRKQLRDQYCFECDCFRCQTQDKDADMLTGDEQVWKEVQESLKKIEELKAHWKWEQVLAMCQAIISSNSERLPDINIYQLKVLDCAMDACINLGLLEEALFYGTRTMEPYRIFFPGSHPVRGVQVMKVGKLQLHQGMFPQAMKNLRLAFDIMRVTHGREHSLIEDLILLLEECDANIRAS

H3K27Me3 in G401 cells = conditions: 4 days, acid-extracted histones, immunoblot
Protocol: (§2) A204, G401, and G402 cells were cultured in McCoys 5a+10% FBS.
(§3) Cells were pelleted, washed with ice cold PBS, resuspended in ice cold RIPA buffer, and incubated on ice for 5 minutes. Lysates were sonicated 3× for 10 sec at 50% power, then incubated on ice for 10 minutes. Lysates were then centrifuged at max speed for 15 minutes at 4 degrees in a table top centrifuge. Clarified lysates were aliquoted to a fresh tube, and protein concentrations for WCL were determined by BCA assay (Pierce).

PRMT8 = PRMT8 (Homo sapiens, UniProt Q9NR22); experiment: Histone methyltransferase inhibition, PRMT8; type: biochemical
Sequence of PRMT8 (Q9NR22 whole entry, species assumed): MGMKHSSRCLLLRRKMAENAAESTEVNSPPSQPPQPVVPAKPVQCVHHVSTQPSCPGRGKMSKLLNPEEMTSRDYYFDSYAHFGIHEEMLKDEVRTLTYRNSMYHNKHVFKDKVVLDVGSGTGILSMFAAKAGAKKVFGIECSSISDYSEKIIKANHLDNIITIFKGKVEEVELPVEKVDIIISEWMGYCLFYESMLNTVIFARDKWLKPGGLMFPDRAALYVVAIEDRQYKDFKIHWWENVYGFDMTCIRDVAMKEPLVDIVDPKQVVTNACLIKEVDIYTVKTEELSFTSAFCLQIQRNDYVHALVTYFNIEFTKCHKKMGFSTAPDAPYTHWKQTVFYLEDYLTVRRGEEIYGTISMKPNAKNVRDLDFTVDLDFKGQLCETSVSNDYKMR

WSU-DLCL2 cells [4] = experiment: Cell cycle progression and apoptosis (TUNEL), WSU-DLCL2; type: cell-based, human
Pfeiffer cells = conditions: Pfeiffer (EZH2 A677G); 11-day proliferation
CARM1 = CARM1 (Homo sapiens, UniProt Q86X55); experiment: Histone methyltransferase inhibition, CARM1; type: biochemical
OCI-LY19 cells = conditions: OCI-LY19 (EZH2 wild type for residue Y641)
[5] = system: SMARCB1 regulated genes in G401 cells; experiment: Gene expression analysis (qPCR), G401 cells; type: cell-based; conditions: 1 μM, up to 7 days, time-dependent
Protocol: (§4) Gene expression was normalized to 18S (AB #Hs99999901_s1) and fold change was calculated using the ΔΔCt method. For the in vivo samples, the average Ct value+/−SD was determined for each dose group and fold change compared to vehicle dose group was calculated using the ΔΔCt method.

[6] = system: SMARCB1 regulated genes in RD control cells; experiment: Gene expression analysis (qPCR), RD cells; type: cell-based; conditions: 1 μM
Protocol: as §4

[7] = system: G401 SMARCB1-deleted cells; experiment: Cell cycle analysis (flow cytometry) and TUNEL assay, G401; type: cell-based; conditions: 1 μM, up to 14 days
Protocol: as §1

H3K27Me3 in RD cells = conditions: 4 days, acid-extracted histones, immunoblot
Protocol: as §2, §3

WSU-DLCL2 cells [8] = conditions: with mouse plasma protein binding considered
WHSC1L1 = WHSC1L1 (Homo sapiens, UniProt Q9BZ95); experiment: Histone methyltransferase inhibition, WHSC1L1; type: biochemical
PRMT6 = PRMT6 (Homo sapiens, UniProt Q96LA8); experiment: Histone methyltransferase inhibition, PRMT6; type: biochemical; conditions: read-out: % Inhibition at 1 μM Compound A, mean and SD of duplicate experiments
SETD7 = SETD7 (Homo sapiens, UniProt Q8WTS6); experiment: Histone methyltransferase inhibition, SETD7; type: biochemical; conditions: read-out: % Inhibition at 1 μM Compound A, mean and SD of duplicate experiments
[9] = system: G402 SMARCB1-deleted cells; experiment: Cell morphology, G402 cells; type: cell-based; conditions: 1 μM, 14 days
[10] = system: WSU-DLCL2 Human Lymphoma Cells; experiment: Washout experiments, WSU-DLCL2 proliferation (LCC); type: cell-based
KARPAS-422 xenografts = experiment: KARPAS-422 xenograft in mice; type: in vivo, nude mice; conditions: for antitumor effect, intermittent dosing schedules: 7-day on/7-day off and 21 day on/7 day off
WHSC1 = WHSC1 (Homo sapiens, UniProt O96028); experiment: Histone methyltransferase inhibition, WHSC1; type: biochemical
Sequence of WHSC1 (O96028 whole entry, species assumed): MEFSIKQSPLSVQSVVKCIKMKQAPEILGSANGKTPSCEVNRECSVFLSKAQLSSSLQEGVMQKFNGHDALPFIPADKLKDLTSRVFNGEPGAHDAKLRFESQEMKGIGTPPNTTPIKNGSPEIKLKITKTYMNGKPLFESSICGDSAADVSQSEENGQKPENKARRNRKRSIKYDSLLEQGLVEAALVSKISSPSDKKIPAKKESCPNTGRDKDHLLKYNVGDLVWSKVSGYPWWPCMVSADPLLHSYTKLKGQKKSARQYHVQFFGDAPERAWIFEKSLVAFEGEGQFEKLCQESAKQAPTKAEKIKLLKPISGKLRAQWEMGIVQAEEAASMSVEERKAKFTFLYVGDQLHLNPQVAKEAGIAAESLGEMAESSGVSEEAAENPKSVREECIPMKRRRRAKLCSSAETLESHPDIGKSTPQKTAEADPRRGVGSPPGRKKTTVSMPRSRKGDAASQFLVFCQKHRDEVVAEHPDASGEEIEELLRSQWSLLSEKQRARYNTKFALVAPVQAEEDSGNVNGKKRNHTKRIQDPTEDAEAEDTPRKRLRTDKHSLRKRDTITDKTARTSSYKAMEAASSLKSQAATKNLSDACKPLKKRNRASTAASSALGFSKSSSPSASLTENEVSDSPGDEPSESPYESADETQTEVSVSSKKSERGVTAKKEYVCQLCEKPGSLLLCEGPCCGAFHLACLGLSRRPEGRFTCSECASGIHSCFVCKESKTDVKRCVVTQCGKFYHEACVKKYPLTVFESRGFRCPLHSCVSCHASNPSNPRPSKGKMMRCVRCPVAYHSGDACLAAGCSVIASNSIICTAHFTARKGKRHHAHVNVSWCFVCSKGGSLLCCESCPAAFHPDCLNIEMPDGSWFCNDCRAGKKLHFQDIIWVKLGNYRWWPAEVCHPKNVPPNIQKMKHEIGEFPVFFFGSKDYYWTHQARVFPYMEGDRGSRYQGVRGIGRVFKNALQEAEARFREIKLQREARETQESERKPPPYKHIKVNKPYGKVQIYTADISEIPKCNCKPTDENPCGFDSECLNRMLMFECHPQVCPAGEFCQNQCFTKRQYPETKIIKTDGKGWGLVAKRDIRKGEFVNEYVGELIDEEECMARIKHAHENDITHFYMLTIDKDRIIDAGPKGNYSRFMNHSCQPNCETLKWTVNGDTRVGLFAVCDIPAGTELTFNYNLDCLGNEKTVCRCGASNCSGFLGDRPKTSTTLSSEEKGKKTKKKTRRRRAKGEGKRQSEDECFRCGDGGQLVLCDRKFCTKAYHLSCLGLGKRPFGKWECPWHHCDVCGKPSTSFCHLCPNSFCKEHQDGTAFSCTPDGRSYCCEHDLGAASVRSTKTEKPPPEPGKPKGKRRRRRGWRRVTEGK

PRMT1 = PRMT1 (Homo sapiens, UniProt Q99873); experiment: Histone methyltransferase inhibition, PRMT1; type: biochemical
Sequence of PRMT1 (Q99873 whole entry, species assumed): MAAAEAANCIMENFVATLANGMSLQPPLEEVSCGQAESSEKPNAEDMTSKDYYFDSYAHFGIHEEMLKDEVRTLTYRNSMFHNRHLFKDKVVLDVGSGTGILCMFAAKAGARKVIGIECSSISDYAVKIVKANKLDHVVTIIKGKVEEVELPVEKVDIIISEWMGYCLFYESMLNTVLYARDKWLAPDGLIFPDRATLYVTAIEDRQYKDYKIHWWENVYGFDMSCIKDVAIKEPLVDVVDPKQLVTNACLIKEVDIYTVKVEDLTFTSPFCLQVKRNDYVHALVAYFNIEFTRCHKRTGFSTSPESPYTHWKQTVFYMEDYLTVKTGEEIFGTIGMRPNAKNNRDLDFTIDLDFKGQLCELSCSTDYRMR

SMYD2 = SMYD2 (Homo sapiens, UniProt Q9NRG4); experiment: Histone methyltransferase inhibition, SMYD2; type: biochemical
[11] = system: SNF5 mutant cell line G401; experiment: Response of cell lines to Compound E (FIG. 2), G401; type: cell-based
[12] = system: ATRX mutant SCLC line SW1271; experiment: Response of ATRX mutant SCLC lines to Compound E, SW1271; type: cell-based
[13] = system: G401 SNF mutant cell line; experiment: Soft agar growth, G401; type: cell-based; conditions: after 7 days
[14] = system: LNCAP prostate cancer cells; experiment: Cell growth inhibition in vitro, LNCAP; type: cell-based
[15] = system: ATRX mutant SCLC line NCI-H446; experiment: Response of ATRX mutant SCLC lines to Compound E, NCI-H446; type: cell-based
[16] = system: SNF5 mutant cell line A204; experiment: Response of cell lines to Compound E (FIG. 2), A204; type: cell-based
[17] = system: ATRX mutant SCLC line NCI-H841; experiment: Response and morphology of ATRX mutant SCLC line NCI-H841 with Compound E; type: cell-based
[18] = system: SNF5 mutant cell line G402; experiment: Response of cell lines to Compound E (FIG. 2), G402; type: cell-based
[19] = read-out: % Inhibition at 1 μM Compound A, mean and SD of duplicate experiments
[20] = 4-day Compound A, 11-day Washout
[21] = 7-day Compound A, 7-day Washout

## CCN(c1cc(-c2ccc(CN3CCOCC3)cc2)cc(C(=O)NCc2c(C)cc(C)[nH]c2=O)c1C)C1CCOCC1 [Compound A, N-((4,6-dimethyl-2-oxo-1,2-dihydropyridin-3-yl)methyl)-5-(ethyl (tetrahydro-2H-pyran-4-yl)amino)-4-methyl-4′-(morpholinomethyl)-[1,1′-biphenyl]-3-carboxamide]
[1]; 125 mg/kg
  tumor growth after the dosing period compared to vehicle: significant tumor growth delay
[1]; 133 mg/kg
  tumor growth after dosing stop compared to vehicle: significant tumor growth delay
[1]; 250 or 500 mg/kg BID, 32 days after dose cessation
  tumor re-growth: Re-growth was not observed
[1]; 250 or 500 mg/kg twice daily (BID) for 21 to 28 days
  antitumor effect: practically eliminated
[1]; 266 or 532 mg/kg BID for 28 days
  antitumor effect: eliminated
[1]; 266 or 532 mg/kg BID, study end, 32 days after dosing stop
  tumor re-growth: re-growth was not observed
[1]; 5 min before or 3 h after dosing on day 21, LC-MS/MS
  plasma levels (systemic exposure): dose-dependent increase in systemic exposure
[1]; treated 21 days, qPCR
  gene expression in G401 xenograft tumors: dose-dependent changes in the expression of CD133, PTPRK, DOCK4 and GLI1
[1]; tumors harvested on day 21, maximum effect at 250 mg/kg
  H3K27me3 in tumors (ELISA): strong inhibition of H3K27me3
[2]
  cell cycle and apoptosis compared to DMSO control: no changes in cell cycle or apoptosis
PRMT5/MEP50; one experiment
  IC50: > 50 µM
PRMT5/MEP50; [19]
  inhibition at 1 µM: 2 ± 6%
DOT1L; one experiment
  IC50: > 50 µM
DOT1L; [19]
  inhibition at 1 µM: 2 ± 8%
EHMT1; one experiment
  IC50: > 50 µM
EHMT1; [19]
  inhibition at 1 µM: 6 ± 6%
G401 cells
  sensitivity in vitro (cell viability, CellTiter-Glo): sensitive
[3]
  oral bioavailability: excellent
PRMT3
  inhibition at 1 µM: 2 ± 2%
EHMT2; one experiment
  IC50: > 50 µM
EHMT2; [19]
  inhibition at 1 µM: 7 ± 3%
SMYD3
  inhibition at 1 µM: 0%
H3K27Me3 in G401 cells
  specificity for inhibition of cellular histone methylation: selective inhibition of cellular H3K27 methylation
PRMT8; one experiment
  IC50: > 50 µM
PRMT8; [19]
  inhibition at 1 µM: 7 ± 3%
WSU-DLCL2 cells [4]; 1 μM, 7 days
  sub-G1 fraction: no apparent increase in the sub-G1 fraction
WSU-DLCL2 cells [4]; 1 μM, apparent after 2 days, maximum after 4 days
  cell cycle progression: increase in the percentage of cells in G1 phase, and a decrease in the percentage of cells in S phase and G2/M phase
WSU-DLCL2 cells [4]; day 14 compared to vehicle
  fraction of apoptotic cells (TUNEL assay): significantly increased
Pfeiffer cells
  increase in sensitivity over the Y641 mutant cell lines, measured by IC50 value: 20 fold
  increase in sensitivity over the Y641 mutant cell lines, measured by LCC: 300 fold
CARM1; mean of duplicate experiments
  IC50: > 50 µM
CARM1; read-out: % Inhibition at 1 μM Compound A, mean and standard deviation of duplicate experiments
  inhibition at 1 µM: 5 ± 3%
OCI-LY19 cells
  growth over 11 days: not significantly affected
[5]
  expression of CDKN1A, CDKN2A and BIN1: up-regulated cell cycle inhibitors CDKN1A and CDKN2A and tumor suppressor BIN1
  expression of neuronal differentiation genes CD133, DOCK4, PTPRK: strongly induced expression of CD133, DOCK4 and PTPRK
[6]
  expression of the SMARCB1 regulated genes: minimal effect on expression
[7]
  cell cycle (G1 arrest): increase in the percentage of cells in G1 phase, and a concomitant decrease in S phase and G2/M phase after 7 days; also recorded: G1 arrest was observed as of day 7
  sub-G1 fraction and apoptotic cells (TUNEL assay): increased in a time dependent manner; also recorded: apoptosis was induced as of day 11
H3K27Me3 in RD cells
  specificity for inhibition of cellular histone methylation: selective inhibition of cellular H3K27 methylation
WSU-DLCL2 cells [8]
  LCC for WSU-DLCL2 cells as plasma level: 1652 ng/mL
WHSC1L1; one experiment
  IC50: > 100 µM
WHSC1L1; [19]
  inhibition at 1 µM: 9 ± 8%
PRMT6
  inhibition at 1 µM: 3 ± 3%
SETD7
  inhibition at 1 µM: 4 ± 3%
[9]
  cell morphology: neuron-like morphology
[10]; [20]
  Day 11 LCC: 0.36 µM
  Day 14 LCC: 0.42 µM
[10]; [21]
  Day 11 LCC: 0.19 µM
  Day 14 LCC: 0.075 µM
[10]; No Washout
  Day 11 LCC: 0.17 µM
  Day 14 LCC: 0.11 µM
KARPAS-422 xenografts; 90 mg/kg BID
  antitumor effect, intermittent dosing schedules: tumor growth inhibition
KARPAS-422 xenografts; 361 mg/kg BID
  antitumor effect, intermittent dosing schedules: complete regressions
KARPAS-422 xenografts; 7-day study, nude mice, BID and QD schedules
  tumor H3K27Me3 levels: dose-dependent reduction of tumor H3K27Me3 levels
KARPAS-422 xenografts; higher doses, up to 90 days after cessation of dosing
  tumor re-growth after cessation of dosing: no re-growth
WHSC1; one experiment
  IC50: > 100 µM
WHSC1; [19]
  inhibition at 1 µM: 8 ± 3%
PRMT1; one experiment
  IC50: > 50 µM
PRMT1; [19]
  inhibition at 1 µM: 5 ± 4%
SMYD2; one experiment
  IC50: > 50 µM
SMYD2; [19]
  inhibition at 1 µM: 1 ± 2%

## CCN(c1cc(-c2ccc(CN3CCOCC3)cc2)cc(C(=O)NCc2c(C)cc(C)[nH]c2=O)c1C)[C@H]1CC[C@H](N(C)C)CC1 [Compound E, N-((4,6-dimethyl-2-oxo-1,2-dihydropyridin-3-yl)methyl)-5-(((1r,4r)-4-(dimethylamino)cyclohexyl)(ethyl)amino)-4-methyl-4′-(morpholinomethyl)-[1,1′-biphenyl]-3-carboxamide]
[11]
  response compared to wild type cell lines RD and SJCRH30: selectively respond
[12]
  response: responding
[13]
  response in soft agar compared to wild type cells RD: responding
[14]
  cell growth inhibition: dose-dependent cell growth inhibition
[15]
  response: responding
[16]
  response compared to wild type cell lines RD and SJCRH30: selectively respond
[17]
  response: responding
[17]; 4.1E-02 uM or 3.3 uM
  cell morphology: changes morphology
[18]
  response compared to wild type cell lines RD and SJCRH30: selectively respond

From patent publication US12162865B2, “Methods of treating cancer” (Epizyme, Inc., priority 2012, dated 2024)
